Experimental data taken from ChEMBL document CHEMBL1134402, “Atropisomeric derivatives of 2',6'-disubstituted (R)-11-phenylaporphine: selective serotonin 5-HT(7) receptor antagonists” (J Med Chem, 2001).

Experiments:
[1] = target: T1, 5-hydroxytryptamine receptor 1A (Homo sapiens, UniProt P08908); experiment: Displacement of [3H]8-OH-DPAT from human 5-hydroxytryptamine 1A receptor expressed in CHO cells; assay type: cell-based
T1 sequence (P08908 whole entry): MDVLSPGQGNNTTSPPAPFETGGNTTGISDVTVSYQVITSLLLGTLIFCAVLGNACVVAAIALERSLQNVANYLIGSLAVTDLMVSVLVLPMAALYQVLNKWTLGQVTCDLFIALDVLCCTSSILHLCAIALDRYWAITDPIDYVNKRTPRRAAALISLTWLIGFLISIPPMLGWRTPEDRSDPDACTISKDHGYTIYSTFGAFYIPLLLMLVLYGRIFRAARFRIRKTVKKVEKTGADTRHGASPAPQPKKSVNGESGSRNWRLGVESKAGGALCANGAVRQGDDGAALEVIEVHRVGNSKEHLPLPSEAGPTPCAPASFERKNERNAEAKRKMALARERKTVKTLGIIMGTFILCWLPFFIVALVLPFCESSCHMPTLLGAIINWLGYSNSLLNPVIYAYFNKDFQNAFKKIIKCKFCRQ

[2] = target: 5-hydroxytryptamine receptor 7 (Rattus norvegicus, UniProt P32305); experiment: Displacement of [3H]5-HT from rat 5-hydroxytryptamine 7 receptor expressed in CHO cells; assay type: cell-based
Sequence of 5-hydroxytryptamine receptor 7 (P32305 whole entry): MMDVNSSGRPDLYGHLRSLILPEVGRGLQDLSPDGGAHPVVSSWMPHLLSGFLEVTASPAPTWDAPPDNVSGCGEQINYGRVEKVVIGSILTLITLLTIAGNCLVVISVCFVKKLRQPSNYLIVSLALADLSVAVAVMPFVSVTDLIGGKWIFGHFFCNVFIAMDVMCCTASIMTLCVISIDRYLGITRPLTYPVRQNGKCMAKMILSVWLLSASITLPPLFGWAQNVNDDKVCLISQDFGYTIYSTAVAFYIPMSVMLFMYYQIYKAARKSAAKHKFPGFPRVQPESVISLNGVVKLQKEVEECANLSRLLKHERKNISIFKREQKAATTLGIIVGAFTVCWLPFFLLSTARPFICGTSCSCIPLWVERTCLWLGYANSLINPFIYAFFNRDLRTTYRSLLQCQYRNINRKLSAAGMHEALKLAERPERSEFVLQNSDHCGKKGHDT

[3] = target: D(2) dopamine receptor (Homo sapiens, UniProt P14416); experiment: Displacement of [3H]raclopride from human dopamine receptor D2A expressed in mouse Ltk cells; assay type: cell-based
Sequence of D(2) dopamine receptor (P14416 whole entry): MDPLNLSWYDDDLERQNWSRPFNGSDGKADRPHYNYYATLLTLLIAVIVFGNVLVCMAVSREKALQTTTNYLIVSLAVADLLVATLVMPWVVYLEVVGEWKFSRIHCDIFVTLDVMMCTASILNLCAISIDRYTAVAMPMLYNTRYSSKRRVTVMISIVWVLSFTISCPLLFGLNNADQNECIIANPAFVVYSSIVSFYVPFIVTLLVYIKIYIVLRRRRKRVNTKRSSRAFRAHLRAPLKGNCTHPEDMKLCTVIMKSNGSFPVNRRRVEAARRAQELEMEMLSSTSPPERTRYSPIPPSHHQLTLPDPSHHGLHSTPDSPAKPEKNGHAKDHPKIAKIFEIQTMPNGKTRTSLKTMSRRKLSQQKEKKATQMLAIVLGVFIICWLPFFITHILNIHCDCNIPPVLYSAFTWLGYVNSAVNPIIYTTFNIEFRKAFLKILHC

[4] = target: 5-hydroxytryptamine receptor 7 (Rattus norvegicus) (UniProt P32305); experiment: Percent inhibition of 5-HT7-induced stimulation of cAMP production in CHO cells expressing rat 5-HT receptors at a concentration of 10000 nM; assay type: cell-based
Sequence of 5-hydroxytryptamine receptor 7 (Rattus norvegicus) (P32305 whole entry): as the sequence (P32305 whole entry) above

[5] = target: 5-hydroxytryptamine receptor 7 (Rattus norvegicus) (UniProt P32305); experiment: Percent inhibition of 5-HT7-induced stimulation of cAMP production in CHO cells expressing rat 5-HT receptors at a concentration of 100 nM; assay type: cell-based
[6] = target: 5-hydroxytryptamine receptor 7 (Rattus norvegicus) (UniProt P32305); experiment: Percent inhibition of 5-HT7-induced stimulation of cAMP production in CHO cells expressing rat 5-HT receptors at a concentration of 1 nM; assay type: cell-based
[7] = target: 5-hydroxytryptamine receptor 7 (Rattus norvegicus) (UniProt P32305); settings: CHO; 10000 nM
[8] = target: 5-hydroxytryptamine receptor 7 (Rattus norvegicus) (UniProt P32305); settings: CHO; 100 nM
[9] = target: 5-hydroxytryptamine receptor 7 (Rattus norvegicus) (UniProt P32305); settings: CHO; 1 nM
[10] = target: 5-hydroxytryptamine receptor 7 (Rattus norvegicus) (UniProt P32305); experiment: Percent inhibition of 5-HT7-induced stimulation of cAMP production in CHO cells expressing rat 5-HT receptors by 10000 nM 5-HT.; assay type: cell-based
[11] = target: 5-hydroxytryptamine receptor 7 (Rattus norvegicus) (UniProt P32305); experiment: Percent inhibition of 5-HT7-induced stimulation of cAMP production in CHO cells expressing rat 5-HT receptors by 100 nM 5-HT.; assay type: cell-based
[12] = target: 5-hydroxytryptamine receptor 7 (Rattus norvegicus) (UniProt P32305); experiment: Percent inhibition of 5-HT7-induced stimulation of cAMP production in CHO cells expressing rat 5-HT receptors by 1 nM 5-HT.; assay type: cell-based

| SMILES | Ki [1] [nM] | Ki [2] [nM] | Ki [3] [nM] | also measured |
| --- | --- | --- | --- | --- |
| O=C1Nc2cccc3c2[C@]1(CCCCN1CC=C(c2ccccc2)CC1)CCC3 | 170 | 3.31 | 105 |  |
| CN1CCc2cccc3c2[C@H]1Cc1cccc(-c2ccccc2)c1-3 | 1.8 | 9.78 |  | inhibition [4]: 100%; inhibition [5]: 30%; inhibition [6]: 23% |
| CN1CCc2cccc3c2[C@H]1Cc1cccc(-c2c(OS(=O)(=O)C(F)(F)F)cccc2OS(=O)(=O)C(F)(F)F)c1-3 | > 10000 | 708 | 2260 |  |
| COc1cccc(OC)c1-c1cccc2c1-c1cccc3c1[C@@H](C2)N(C)CC3 | 554 | 13 | 2030 |  |
| Cc1cccc(C#N)c1-c1cccc2c1-c1cccc3c1[C@@H](C2)N(C)CC3 (stereo in doubt; form 1) [listing 2 of 2 here] |  |  |  | inhibition [7]: 100%; inhibition [8]: 42%; inhibition [9]: 21% |
| Cc1cccc(O)c1-c1cccc2c1-c1cccc3c1[C@@H](C2)N(C)CC3 (stereo in doubt; form 1) [listing 2 of 2 here] |  |  |  | inhibition [10]: 100%; inhibition [11]: 72%; inhibition [12]: 11% |
| Cc1cccc(O)c1-c1cccc2c1-c1cccc3c1[C@@H](C2)N(C)CC3 (stereo in doubt; form 2) [listing 2 of 2 here] |  |  |  | inhibition [4]: 100%; inhibition [5]: 43%; inhibition [6]: 21% |
| Cc1cccc(S(=O)(=O)N(C)[C@H](C)CCN2CCC(C)CC2)c1 [SB-258719] | > 7940 | 31.6 |  |  |

Continued, in another order:

| Ki [1] [nM] | Ki [2] [nM] | Ki [3] [nM] | SMILES | also measured |
| --- | --- | --- | --- | --- |
| 139 | 36.2 | > 1000 | CN1CCc2cccc3c2[C@H]1Cc1cccc(-c2c(O)cccc2O)c1-3 |  |
| 48.8 | 23 | 2500 | Cc1cccc(O)c1-c1cccc2c1-c1cccc3c1[C@@H](C2)N(C)CC3 (stereo in doubt; form 1) [listing 1 of 2 here] |  |
| 778 | 20.8 | 2470 | Cc1cccc(C#N)c1-c1cccc2c1-c1cccc3c1[C@@H](C2)N(C)CC3 (stereo in doubt; form 1) [listing 1 of 2 here] |  |
| 319 | 43.1 | 3380 | Cc1cccc(O)c1-c1cccc2c1-c1cccc3c1[C@@H](C2)N(C)CC3 (stereo in doubt; form 2) [listing 1 of 2 here] |  |
| 142 | 3.79 | 498 | Cc1cccc(C#N)c1-c1cccc2c1-c1cccc3c1[C@@H](C2)N(C)CC3 (stereo in doubt; form 2) |  |
